According to patent US10457666B2, “Stable crystal form of tipiracil hydrochloride and crystallization method for the same” (TAIHO PHARMACEUTICAL CO., LTD., priority 2013, dated 2019):
Several values for one entry are separate records, joined by “and”; a condition that tells them apart may be missing. Equal values may be shown once.

Experiments:
[1] = Stability test (storage stability after preservation); assay type: physicochemical; details: preservation at 40° C. for six months; for change in powder X-ray diffraction pattern after preservation (storage stability): hydrochloride
Description: Crystal I, Crystal III, and Crystal II of tipiracil hydrochloride obtained in accordance with Example 1, Example 2, and Reference Example 1 respectively were tested for storage stability after preservation at a temperature of 40° C. for six months.

[2] = Test for measurement of electric charge amount by air transfer; assay type: physicochemical; details: for Amount of electric charge per unit mass, average value: average of 3 measurements; for Amount of electric charge per unit mass, average value / Amount of electric charge / Amount of electric charge per unit mass: air transfer 130 L/min, SUS electrifying tube, hydrochloride; for Amount of electric charge / Amount of electric charge per unit mass: individual measurements No. 1-3; for polarity of charge: relative to SUS membrane
Description: Electric charge amounts of Crystal I and Crystal III obtained in accordance with Example 1 and Example 2 respectively were measured by air transfer. Crystal I or Crystal III was put in a powder supply part of an electrifying tube (made of SUS, 24.6×500 mm), and was left for 10 minutes. The sample was transferred by air at a flow rate of 130 L/min and the electric charge amount was calculated from the current value at that time obtained from the electrifying tube. ? =−∫0^tIdt Q: Amount of electric charge [C] I: Current generated during measurement [A] t: Measuring time […]
The measurement was performed 5 times, of which 3 times that gave stable results were adopted. The average of the values of the 3 times was regarded as the measured value.

amounts of analogous substances after preservation [1] | change in powder X-ray diffraction pattern after preservation (storage stability) [1] | Amount of electric charge per unit mass, average value [2] | polarity of charge [2] | charge relative to Crystal I ([2]; comparison of Table 2 and Table 3) | SMILES | Amount of electric charge [2] | Amount of electric charge per unit mass [2]
small and not increased | no change | 1.0 × 10^−7 C/g | (positively-charged | – | Cl.N=C1CCCN1Cc1[nH]c(=O)[nH]c(=O)c1Cl [Crystal I, 5-chloro-6-(2-iminopyrrolidin-1-yl)methyl-2,4(1H,3H)-pyrimidinedione hydrochloride] | 5.3 × 10^−8 C and 5.0 × 10^−8 C | 1.1 × 10^−7 C/g and 9.7 × 10^−8 C/g and 9.8 × 10^−8 C/g
– | not the same | – | – | – | Cl.N=C1CCCN1Cc1[nH]c(=O)[nH]c(=O)c1Cl [Crystal II, 5-chloro-6-(2-iminopyrrolidin-1-yl)methyl-2,4(1H,3H)-pyrimidinedione hydrochloride] | – | –
small and not increased | no change | 3.5 × 10^−7 C/g | (positively-charged | three times as much charge as Crystal I | Cl.N=C1CCCN1Cc1[nH]c(=O)[nH]c(=O)c1Cl [Crystal III, 5-chloro-6-(2-iminopyrrolidin-1-yl)methyl-2,4(1H,3H)-pyrimidinedione hydrochloride] | 2.0 × 10^−7 C and 2.1 × 10^−7 C and 1.8 × 10^−7 C | 3.2 × 10^−7 C/g (2×) and 4.2 × 10^−7 C/g
